Results as given in ChEMBL document CHEMBL2010681, “Synthesis and SAR study of 4-arylpiperidines and 4-aryl-1,2,3,6-tetrahydropyridines as 5-HT₂C agonists” (Bioorg Med Chem Lett, 2012).

How the values were obtained:
[1] = biological target: T1, 5-hydroxytryptamine receptor 2C (Homo sapiens, UniProt P28335); experiment: Agonist activity at 5HT2C receptor expressed in CHO cells by fluorescence based calcium mobilization assay; type: functional, cell-based
T1 sequence (P28335 whole entry): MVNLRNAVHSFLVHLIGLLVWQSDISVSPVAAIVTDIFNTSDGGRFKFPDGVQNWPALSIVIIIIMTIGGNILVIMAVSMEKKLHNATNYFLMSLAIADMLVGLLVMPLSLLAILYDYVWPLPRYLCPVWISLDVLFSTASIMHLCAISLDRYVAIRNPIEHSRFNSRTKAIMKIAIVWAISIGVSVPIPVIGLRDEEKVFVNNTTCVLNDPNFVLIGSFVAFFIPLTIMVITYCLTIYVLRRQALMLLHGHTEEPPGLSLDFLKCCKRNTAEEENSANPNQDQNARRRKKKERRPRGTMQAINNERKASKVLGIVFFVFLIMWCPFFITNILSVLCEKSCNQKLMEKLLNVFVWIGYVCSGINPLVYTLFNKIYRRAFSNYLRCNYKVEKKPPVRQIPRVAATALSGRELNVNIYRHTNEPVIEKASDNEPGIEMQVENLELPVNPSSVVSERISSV

[2] = biological target: T2, 5-hydroxytryptamine receptor 2C (Homo sapiens) (UniProt P28335); experiment: Displacement of [3H]-mesulergine from 5HT2C receptor expressed in CHO cell membranes at 10 uM after 90 mins by scintillation counting
T2 sequence (whole entry): T1 sequence (P28335 whole entry)

[3] = biological target: T2, 5-hydroxytryptamine receptor 2C (Homo sapiens); experiment: Displacement of [3H]-mesulergine from 5HT2C receptor expressed in CHO cell membranes at 1 uM after 90 mins by scintillation counting
[4] = biological target: T1, 5-hydroxytryptamine receptor 2C; experiment: Displacement of [3H]-mesulergine from 5HT2C receptor expressed in CHO cell membranes after 90 mins by scintillation counting
[5] = biological target: T1, 5-hydroxytryptamine receptor 2C; experiment: Displacement of [3H]-mesulergine from 5HT2C receptor expressed in CHO cell membranes using 11 concentration of ligand after 90 mins by scintillation counting using complete competition binding curves analysis

## Cl.Clc1ccccc1C1CCNCC1
[1]; cho
  EC50: Not Active

## Clc1cccc(C2CCNCC2)c1
[2]
  inhibition: 83%
[3]
  inhibition: 37%
[4]
  Ki: 0.931 µM
[1]; read-out: EC50
  EC50: 0.79 µM
[5]
  Ki: 1.43 µM

## Cc1ccccc1C1CCNCC1.Cl
[2]
  inhibition: 65%
[3]
  inhibition: 10%
[4]
  Ki: 3.17 µM
[1]; cho
  EC50: Not Active

## Cc1cccc(C2CCNCC2)c1
[2]
  inhibition: 63%
[3]
  inhibition: 15%
[4]
  Ki: 3.13 µM
[1]; read-out: EC50
  EC50: 2 µM

## Brc1ccc(C2=CCNCC2)cc1
[2]
  inhibition: 65%
[3]
  inhibition: 22%
[4]
  Ki: 2.54 µM
[1]; read-out: EC50
  EC50: 3.52 µM

## C1=C(c2c[nH]c3ccccc23)CCNC1
[2]
  inhibition: 95%
[3]
  inhibition: 64%
[4]
  Ki: 0.296 µM
[1]; read-out: EC50
  EC50: 0.163 µM
[5]
  Ki: 0.632 µM

## COc1cccc(C2CCNCC2)c1.Cl
[4]
  Ki: 6.19 µM
[1]; cho
  EC50: Not Active

## Cl.Oc1cccc(C2CCNCC2)c1
[4]
  Ki: > 10 µM
[1]; cho
  EC50: Not Active

## FC(F)(F)c1cccc(C2=CCNCC2)c1
[2]
  inhibition: 93%
[3]
  inhibition: 65%
[4]
  Ki: 0.298 µM
[1]; read-out: EC50
  EC50: 0.158 µM
[5]
  Ki: 0.365 µM

## Cl.c1ccc(C2CCNCC2)cc1
[2]
  inhibition: 16%
[3]
  inhibition: 6%
[4]
  Ki: > 10 µM
[1]; cho
  EC50: Not Active

## COc1ccc(C2CCNCC2)cc1.Cl
[2]
  inhibition: 9%
[3]
  inhibition: 3%
[4]
  Ki: > 10 µM
[1]; cho
  EC50: Not Active

## Cc1ccc(C2CCNCC2)cc1.Cl
[2]
  inhibition: 33%
[3]
  inhibition: 9%
[4]
  Ki: > 10 µM
[1]; cho
  EC50: Not Active

## Cl.FC(F)(F)c1ccc(C2CCNCC2)cc1
[4]
  Ki: 8.32 µM
[1]; cho
  EC50: Not Active

## O=C(O)C(F)(F)F.c1cc2c(c(C3CCNCC3)c1)CCCC2
[4]
  Ki: 0.055 µM
[1]; cho
  EC50: Not Active
[5]
  Ki: 0.043 µM

## COc1ccccc1C1CCNCC1.Cl
[2]
  inhibition: 74%
[3]
  inhibition: 23%
[4]
  Ki: 1.8 µM
[1]; cho
  EC50: Not Active

## FC(F)(F)c1cccc(C2CCNCC2)c1
[2]
  inhibition: 77%
[3]
  inhibition: 26%
[4]
  Ki: 1.55 µM
[1]; read-out: EC50
  EC50: 1.26 µM

## c1ccc2c(C3CCNCC3)c[nH]c2c1
[2]
  inhibition: 92%
[3]
  inhibition: 60%
[4]
  Ki: 0.366 µM
[1]; read-out: EC50
  EC50: 0.128 µM
[5]
  Ki: 0.612 µM

## O=C(O)C(F)(F)F.c1ccc2c(C3CCNCC3)cccc2c1
[4]
  Ki: 0.06 µM
[1]; cho
  EC50: Not Active
[5]
  Ki: 0.072 µM

## Cc1cccc(C2CCNCC2)c1C.Cl
[4]
  Ki: 1.16 µM
[1]; cho
  EC50: Not Active

## Cl.Clc1ccc(C2CCNCC2)cc1
[4]
  Ki: > 10 µM
[1]; cho
  EC50: Not Active

## CN(C)c1ccc(C2CCNCC2)cc1.Cl
[4]
  Ki: > 10 µM
[1]; cho
  EC50: Not Active

## C1=C(c2ccccc2)CCNC1
[2]
  inhibition: 42%
[3]
  inhibition: 9%
[4]
  Ki: 7.18 µM
[1]; read-out: EC50
  EC50: 2.45 µM

## Cl.FC(F)(F)c1ccccc1C1CCNCC1
[4]
  Ki: 0.826 µM
[1]; cho
  EC50: Not Active

## Clc1cccc(C2=CCNCC2)c1
[2]
  inhibition: 95%
[3]
  inhibition: 65%
[4]
  Ki: 0.28 µM
[1]; read-out: EC50
  EC50: 0.0723 µM
[5]
  Ki: 0.318 µM

## Cl.Fc1ccc(C2CCNCC2)cc1
[4]
  Ki: > 10 µM
[1]; cho
  EC50: Not Active

## Clc1ccccc1C1=CCNCC1.O=C(O)C(F)(F)F
[1]; cho
  EC50: Not Active

## Clc1ccc(C2=CCNCC2)cc1
[2]
  inhibition: 62%
[3]
  inhibition: 17%
[4]
  Ki: 3.1 µM
[1]; read-out: EC50
  EC50: 1.76 µM
